In patent US20260007639A1, “COMPOUNDS FOR THE TREATMENT OF NEUROMUSCULAR DISORDERS” (NMD PHARMA A/S, priority 2017, published 2026):

These compounds were tested against T1, human CIC-1 channels (Homo sapiens, UniProt P35523) (assay: Automated patch-clamp on human CIC-1 expressed in CHO cells: shift of half activation voltage ΔV1/2). Conditions: compound in intracellular solution vs control cell patches; CHO cells expressing human CIC-1.
T1 construct: host or cells: CHO (Chinese hamster ovary) cells constitutively expressing human ClC-1
Format: cell-based
Method: FIGS. 13A-13B: FIG. 13A illustrates the voltage protocol used to evoke currents in whole cell patches of CHO cells expressing human CIC-1 channels.
Experiments were performed using an automated patch clamp system that allowed high throughput testing of whole cell patches together with both intracellular and extracellular addition of compound.
Automated whole cell patch clamp experiments were performed with the Qpatch 16 system (Sophion Bioscience, Ballerup, Denmark) at room temperature. Data acquisition and analysis were performed in the Qassay software (ver. 5.6, Odense).
To evoke CIC-1 currents in whole cell patches, the membrane potential was initially stepped from a holding potential of −30 mV to +60 mV for 100 ms and then to various test voltages (sweeps) ranging from +120 mV to −140 mV in steps of 20 mV for 300 ms. To obtain tail currents, the membrane potential was stepped to −100 mV after each test voltage for 300 ms and then relaxed to −30 mV for 2 sec between sweeps (FIG. 3).
I/V relationships for whole cell instant and steady state current amplitudes were obtained by plotting average current densities at the beginning and at the end of the 300 ms step against the membrane potential (FIG. 4).
In order to determine the relative overall open probability (Po), the instantaneous tail currents were normalized to the maximal tail current obtained following the most positive voltage step and plotted against the test voltage. Plots of normalized tail currents from each whole cell patch were then fitted to a Boltzmann function allowing determination of half activation voltages (V1/2, FIG. 5).
For automated patch clamp experiments extracellular solutions contained: 2 mM CaCl2), 1 mM MgCl2, 10 mM HEPES, 4 mM KCl, 145 mM NaCl, 10 mM Glucose, pH adjusted to 7.4 with NaOH (2 M). Osmolality adjusted to ˜320 using sucrose.
Intracellular solutions contained: 80 mM CsF, 60 mM CsCl, 5/1 mM KOH/EGTA, 10 mM HEPES, 10 mM NaCl, pH adjusted to 7.2 with NaOH (2 M). Osmolality adjusted to ˜320 mOsm using sucrose.
Cells used in patch clamp experiments were Chinese hamster ovary cells (CHO) constitutively expressing human CIC-1 channels. The amino acid sequence encoded by the cDNA used to create this cell line was identical to the translated sequence for GenBank accession number NM_000083.2. Cells were produced by Charles River (Catalogue CT6175, Cleveland OH, USA) in a cryopreserved format. Experiments were performed on the cells directly after thawing (3×10^6 cells used in each experiment).
To evaluate the compound effect on CIC-1, when applied directly to the intracellular side of the cell membrane, the half activation voltage, V1/2, was determined from whole cell patches with compound added to the intracellular solution and then compared to V1/2 determined from control cell patches with only vehicle added to the intracellular solution. Additionally, the effect of extracellular added compound was evaluated by determine V1/2 and steady state current amplitudes before and after exchanging the extracellular solution to contain compound.
The difference in half activation voltage of CIC-1 channels, ΔV1/2, was determined as the difference between the cell patches treated intracellularly with compound and control cells patches and is reported in Table 4 below. A positive shift in ΔV 1/2 is reflecting CIC-1 channel inhibition by the tested compound. P-values of <0.05 is considered significant.

T1 sequence (P35523 whole entry): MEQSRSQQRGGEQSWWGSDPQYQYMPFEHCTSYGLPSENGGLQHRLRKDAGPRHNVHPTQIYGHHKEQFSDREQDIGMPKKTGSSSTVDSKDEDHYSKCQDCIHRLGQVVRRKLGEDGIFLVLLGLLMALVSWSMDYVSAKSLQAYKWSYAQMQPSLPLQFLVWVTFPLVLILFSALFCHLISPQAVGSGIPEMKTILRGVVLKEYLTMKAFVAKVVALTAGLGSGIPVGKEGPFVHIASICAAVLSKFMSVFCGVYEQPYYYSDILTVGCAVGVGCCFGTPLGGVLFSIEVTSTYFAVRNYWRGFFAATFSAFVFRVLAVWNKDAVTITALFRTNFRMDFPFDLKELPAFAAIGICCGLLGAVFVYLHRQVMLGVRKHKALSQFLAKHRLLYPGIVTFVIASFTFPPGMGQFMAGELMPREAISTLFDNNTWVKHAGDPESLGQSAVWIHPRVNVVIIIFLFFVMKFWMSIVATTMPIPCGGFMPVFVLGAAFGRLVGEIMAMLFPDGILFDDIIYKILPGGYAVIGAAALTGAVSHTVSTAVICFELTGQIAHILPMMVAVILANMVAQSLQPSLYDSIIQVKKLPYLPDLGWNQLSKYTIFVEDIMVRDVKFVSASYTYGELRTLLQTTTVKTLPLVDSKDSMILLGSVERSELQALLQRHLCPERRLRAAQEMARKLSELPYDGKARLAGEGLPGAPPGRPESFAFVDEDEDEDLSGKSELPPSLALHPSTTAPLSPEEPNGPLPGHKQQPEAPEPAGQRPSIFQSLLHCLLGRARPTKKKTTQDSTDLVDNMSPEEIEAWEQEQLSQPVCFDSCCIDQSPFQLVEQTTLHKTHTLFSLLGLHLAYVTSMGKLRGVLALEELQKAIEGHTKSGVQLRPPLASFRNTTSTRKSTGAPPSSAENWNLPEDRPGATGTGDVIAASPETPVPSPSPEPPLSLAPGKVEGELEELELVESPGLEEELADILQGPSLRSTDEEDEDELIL

Compound | Δ1/2 (mV)
C[C@H](Oc1ccc(Br)cc1-c1cocn1)C(=O)O [Compound A-42, (2S)-2-[4-bromo-2-(1,3-oxazol-4-yl)phenoxy]propanoic acid] | 6.8
C[C@H](Oc1ccc(Br)cc1-c1nncs1)C(=O)O [Compound A-65, (2S)-2-[4-bromo-2-(1,3,4-thiadiazol-2-yl)phenoxy]propanoic acid] | 12.8
C[C@H](Oc1ccc(Br)cc1-c1ccon1)C(=O)O [Compound A-16, (2S)-2-[4-bromo-2-(1,2-oxazol-3-yl)phenoxy]propanoic acid] | 14.1
C[C@H](Oc1ccc(Br)cc1-c1ccno1)C(=O)O [Compound A-22, (2S)-2-[4-bromo-2-(1,2-oxazol-5-yl)phenoxy]propanoic acid] | 9.3
C[C@H](Oc1ccc(Cl)cc1-c1ccsn1)C(=O)O [Compound A-83, (2S)-2-[4-chloro-2-(1,2-thiazol-3-yl)phenoxy]propanoic acid] | 10.3
CC[C@H](Oc1ccc(Br)cc1-c1ccon1)C(=O)O [Compound A-2, (2S)-2-[4-bromo-2-(1,2-oxazol-3-yl)phenoxy]butanoic acid] | 7.2
O=C(O)[C@H](CC1CC1)Oc1ccc(Br)cc1-c1ccon1 [Compound A-33, (2S)-2-[4-bromo-2-(1,2-oxazol-3-yl)phenoxy]-3-cyclopropylpropanoic acid] | 15.1
C[C@H](Oc1ccc(Cl)cc1-c1ccon1)C(=O)O [Compound A-34, (2S)-2-[4-chloro-2-(1,2-oxazol-3-yl)phenoxy]propanoic acid] | 8.1

These compounds were tested on rat soleus muscles (assay: Recovery of force in isolated rat soleus nerve-muscle preparations after 115 nM tubocurarine, 50 μM compound (Table 8)). Conditions: 40 mins exposure.
Method: Force traces from a representative muscle stimulated to contract in 1) control condition before addition of neuromuscular blocking agent, 2) the force response to stimulation after 90 minutes incubation with Tubocurarine. […] The traces presented in FIG. 12A (1, 2, 3), correspond to the dotted lines in FIG. 12B, respectively.
Recovery of force is quantified as the percentage of the force prior to tubocurarine that is recovered by the compound.
The current invention relates to compounds that inhibit CIC-1 ion channels and increase muscle excitability and thereby improve muscle function in clinical conditions where muscle activation is failing. Such conditions result in loss of contractile function of skeletal muscle, weakness and excessive fatigue. In this series of experiments the compounds were tested for their ability to restore contractile function of isolated rat muscle when the neuromuscular transmission had been compromised akin to neuromuscular disorders.
Experimentally, soleus muscles from 4-5 wk old rats were isolated with the motor nerve remaining attached. The nerve-muscle preparations were mounted in experimental setups that enabled electrical stimulation of the motor nerve. Stimulation of the motor nerve led to activation of the muscle fibres and ensuing force production that was recorded.
After mounting the nerve-muscle preparation in the experimental setup, the contractile function of the muscle was initially assessed under the control conditions (FIG. 2A). […] The experimental condition mimics the failing neuromuscular transmission in a range of neuromuscular disorders. After addition of tubocurarine the contractile force declined over the next 90 mins to 10-50% of the control force. 50 μM of the test compound was then added and the contractile force recovered despite the continued presence of tubocurarine. To quantify the ability of the compound to restore force the percentage of the initial force that was restored was determined after 40 mins of compound exposure (FIG. 2B) and the point increase is reported in Table 8.

Compound | Point increase (%) of initial force that was restored [%]
C[C@H](Oc1ccc(Br)cc1-c1cocn1)C(=O)O [Compound A-42, (2S)-2-[4-bromo-2-(1,3-oxazol-4-yl)phenoxy]propanoic acid] | 14
C[C@H](Oc1ccc(Br)cc1-c1ccon1)C(=O)O [Compound A-16, (2S)-2-[4-bromo-2-(1,2-oxazol-3-yl)phenoxy]propanoic acid] | 48
C[C@H](Oc1ccc(Br)cc1-c1ccno1)C(=O)O [Compound A-22, (2S)-2-[4-bromo-2-(1,2-oxazol-5-yl)phenoxy]propanoic acid] | 27
CC[C@H](Oc1ccc(Br)cc1-c1ccon1)C(=O)O [Compound A-2, (2S)-2-[4-bromo-2-(1,2-oxazol-3-yl)phenoxy]butanoic acid] | 27
O=C(O)[C@H](CC1CC1)Oc1ccc(Br)cc1-c1ccon1 [Compound A-33, (2S)-2-[4-bromo-2-(1,2-oxazol-3-yl)phenoxy]-3-cyclopropylpropanoic acid] | 35
C[C@H](Oc1ccc(Cl)cc1-c1ccon1)C(=O)O [Compound A-34, (2S)-2-[4-chloro-2-(1,2-oxazol-3-yl)phenoxy]propanoic acid] | 43

Each compound was assayed against T2, CIC-1 channels (Rattus norvegicus, UniProt P35524) (assay: Electrophysiological measurement of compound inhibition of CIC-1 (Gm) in rat soleus muscle fibres: EC50 (Table 7)). Conditions: not given.
T2 sequence (P35524 1-994): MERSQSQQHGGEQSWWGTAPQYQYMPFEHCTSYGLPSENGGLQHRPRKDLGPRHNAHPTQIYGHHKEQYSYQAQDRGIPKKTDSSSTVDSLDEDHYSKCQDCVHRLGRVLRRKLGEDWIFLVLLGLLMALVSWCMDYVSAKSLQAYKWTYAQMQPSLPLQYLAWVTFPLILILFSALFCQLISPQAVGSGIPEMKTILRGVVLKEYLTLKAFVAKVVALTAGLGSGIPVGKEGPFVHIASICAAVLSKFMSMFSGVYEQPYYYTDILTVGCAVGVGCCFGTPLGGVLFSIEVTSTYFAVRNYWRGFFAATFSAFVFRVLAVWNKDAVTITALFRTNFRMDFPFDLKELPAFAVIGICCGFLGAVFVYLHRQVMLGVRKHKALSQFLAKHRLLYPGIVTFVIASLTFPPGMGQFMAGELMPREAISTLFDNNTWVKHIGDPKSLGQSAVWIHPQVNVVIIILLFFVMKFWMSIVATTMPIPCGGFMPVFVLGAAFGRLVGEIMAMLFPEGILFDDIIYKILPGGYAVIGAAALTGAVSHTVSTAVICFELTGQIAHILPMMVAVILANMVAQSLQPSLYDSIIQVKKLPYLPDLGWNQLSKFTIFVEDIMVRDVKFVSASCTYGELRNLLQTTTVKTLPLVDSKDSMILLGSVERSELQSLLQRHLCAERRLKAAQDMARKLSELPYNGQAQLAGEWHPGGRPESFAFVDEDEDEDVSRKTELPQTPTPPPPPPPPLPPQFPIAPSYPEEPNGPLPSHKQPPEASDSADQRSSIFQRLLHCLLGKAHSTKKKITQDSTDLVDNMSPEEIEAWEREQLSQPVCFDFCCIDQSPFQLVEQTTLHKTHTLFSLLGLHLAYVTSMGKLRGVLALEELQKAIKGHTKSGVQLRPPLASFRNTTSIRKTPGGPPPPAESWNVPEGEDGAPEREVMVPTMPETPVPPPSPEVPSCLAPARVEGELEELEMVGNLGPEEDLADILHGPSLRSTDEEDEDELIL

Compound | EC50 [µM]
C[C@H](Oc1ccc(Br)cc1-c1cocn1)C(=O)O [Compound A-42, (2S)-2-[4-bromo-2-(1,3-oxazol-4-yl)phenoxy]propanoic acid] | 3.2
C[C@H](Oc1ccc(Br)cc1-c1ccon1)C(=O)O [Compound A-16, (2S)-2-[4-bromo-2-(1,2-oxazol-3-yl)phenoxy]propanoic acid] | 1.8 ± 1.1
C[C@H](Oc1ccc(Br)cc1-c1ccno1)C(=O)O [Compound A-22, (2S)-2-[4-bromo-2-(1,2-oxazol-5-yl)phenoxy]propanoic acid] | 7.5
CC[C@H](Oc1ccc(Br)cc1-c1ccon1)C(=O)O [Compound A-2, (2S)-2-[4-bromo-2-(1,2-oxazol-3-yl)phenoxy]butanoic acid] | 4.3
O=C(O)[C@H](CC1CC1)Oc1ccc(Br)cc1-c1ccon1 [Compound A-33, (2S)-2-[4-bromo-2-(1,2-oxazol-3-yl)phenoxy]-3-cyclopropylpropanoic acid] | 4.6
C[C@H](Oc1ccc(Cl)cc1-c1ccon1)C(=O)O [Compound A-34, (2S)-2-[4-chloro-2-(1,2-oxazol-3-yl)phenoxy]propanoic acid] | 2

What follows are compounds tested on rat soleus muscles (assay: Recovery of nerve-stimulated force in isolated rat soleus muscles exposed to sub-maximal tubocurarine (Table 1)). Conditions: not given.
Method: The motor nerve was stimulated every 10 min for 2 s with 30 Hz with field stimulation using short duration pulses. […] Traces are shown before addition tubocurarine, after 40 min with tubocurarine, and after 110 min tubocurarine. […] This recovery of force was used in Table 1.
Experiments were performed using rat soleus muscles from either young (4-wk-old) or adult Wistar rats (12-14-week-old). Animal handling, killing and isolation of muscle is described elsewhere All experiments were performed using normal Krebs-Ringer bicarbonate solution (NKR). In solutions with elevated Mg^2+, MgCl^2 was added to NKR-solution causing minor increases in osmolarity and ionic strength. In solutions with elevated K^+, 4 mM NaCl was replaced by 4 mM KCl in the NKR.
In all contraction experiments, isometric force production was determined and force produced during contractions was quantified by measuring the integral of the force response (AUC). Stimulation and force recordings have been described elsewhere. […] In these latter experiments, extracellular recordings of action potentials (M-waves) could be measured without temporal overlap with stimulation artefacts.
The aim was to find compounds that by inhibition of CIC-1 channels can recover nerve-stimulated force under conditions of fatigue including conditions where fatigue is caused by compromised neuromuscular transmission. Neuromuscular transmission dysfunction can develop because of both pre- and/or post-synaptic complications in connection with a disorder or as part of neuromuscular blockade during/after surgery. In the initial series of drug testing, experiments were performed with isolated muscles in the presence of sub-maximal ACh receptor antagonist tubocurarine. Since the inclusion of tubocurarine caused a partial loss of neuromuscular transmission this experiment mimics the conditions in myasthenia gravis and neuromuscular blockade. To mimic conditions with pre-synaptic complication (Lambert Eaton syndrome, motor neuron disorder, polyneuropathy) the intact nerve-muscle preparations were incubated at elevated extracellular Mg^2+, which is known to suppress release of ACh from nerve terminals of motor neurons. […]
For comparison with the muscle only exposed to tubocurarine (grey trace), the two traces have been overlaid. […] For comparison, muscles only exposed to tubocurarine have been included. The dotted line indicates the recovery of force with C8 when compared to the force production before its addition. This value was used in Table 1 for evaluation of the efficacy of the different compounds in recovering force.

Compound | 50 μM % change after addition (AUC force) [%] | 150 μM % change after addition (AUC force) [%]
CC(Oc1ccc(Cl)cc1)C(=O)Oc1ccc(Cl)cc1 (centres unmarked) [Compound C11, 4-chlorophenyl 2-(4-chlorophenoxy)propanoate] | 46 | 54

Same assay, conditions: 150 μM compound; % change in AUC compared to AUC before addition, after 40 min in tubocurarine

Compound | 150 μM % change after addition (AUC force) [%]
COCC(C)C(Oc1ccc(Br)cc1)C(=O)O (centres unmarked) [Compound C21, 2-(4-bromophenoxy)-4-methoxy-3-methylbutanoic acid] | 7
CCC(Oc1ccc(Cl)cc1)C(=O)O (centres unmarked) [Compound C7, 2-(4-chlorophenoxy)butanoic acid] | 0

Same assay, conditions: 500 μM compound; % change in AUC compared to AUC before addition, after 40 min in tubocurarine

Compound | 500 μM % change after addition (AUC force) [%]
COCC(C)C(Oc1ccc(Br)cc1)C(=O)O (centres unmarked) [Compound C21, 2-(4-bromophenoxy)-4-methoxy-3-methylbutanoic acid] | 36
CCC(Oc1ccc(Cl)cc1)C(=O)O (centres unmarked) [Compound C7, 2-(4-chlorophenoxy)butanoic acid] | 40
